Experiments:
[1] = tested on: J774.1a macrophage cells; test: Macrophage TNF-α NO assay (Assay 3); type: cell-based; conditions: 10 μg/ml test compound, LPS, 24 hr, Griess reagent; further: key: a ‘+’ indicates a positive result for desired activity; a ‘−’ indicates a negative result for desired activity
Protocol: Assay 3) Macrophage TNF-α NO assay. J774.1a macrophage cells were treated with 10 μg/ml of test compound dissolved in solvent for 40 minutes prior to the addition of LPS. Culture supernatants were collected after 24 hr. for determination of NO concentration using the Griess reagent.

[2] = tested on: J774.1a macrophage cells; test: Macrophage TNF-α production (Assay 2); type: cell-based; conditions: 10 μg/mL test compound, 100 ng/mL LPS, ELISA; further: key: a ‘+’ indicates a positive result for desired activity; a ‘−’ indicates a negative result for desired activity
Protocol: Assay 2) Macrophage TNF-α production. J774.1a macrophage cells were treated with 10 μg/mL of test compound dissolved in solvent (e.g. cyclodextran) for 40 minutes prior to the addition of 100 ng/mL LPS. Culture supernatants were collected after 2 hr and 5 hr for TNF-α determination by ELISA.

[3] = tested on: Bone marrow derived mast cells; test: Calcium influx in mast cells (Example 11); type: cell-based; conditions: anti IgE antibody, Fura-2
From the text: The activation of mast cells by IgE receptor crosslinking leads to an influx of calcium into the cells, followed by degranulation and secretion of pro-inflammatory mediator. Bone marrow derived mast cells were loaded with the fluorescent calcium indicator dye Fura-2 prior to treatment for 1 hr with Compound 106 or PBS carrier. Cells were then stimulated or not with an anti IgE antibody to cross-link the IgE receptors. Calcium influx was then monitored by fluorimetry. The results are depicted in a graph in FIG. 3.

[4] = tested on: Mast cells; test: Stimulation of mast cells by FcεRI crosslinking (Assay 4); type: cell-based; conditions: anti-DNP IgE, DNP-HSA
Protocol: Assay 4) Stimulation of mast cells by FcåRI crosslinking. Mast cells were pre-loaded overnight in BMMC medium lacking IL-3 with 0.1 μg/ml anti-DNP IgE (SPE-7, Sigma, Oakville, Ont). For calcium flux measurements, cells were incubated with 2 μM fura 2-acetoxymethyl ester (Molecular Probes, Eugene, Oreg.) in Tyrode's buffer at 23° C. for 45 min. Cells were then washed and incubated in the presence of the test compound 30 min prior to stimulation with the indicated concentration of DNP-human serum albumin (DNP-HSA). Calcium influx was monitored by spectrofluorometry as described previously. For analysis of intracellular signaling, cells were pre-loaded with anti-DNP IgE as above, pre-treated with the test compound for 30 min at 37° C. and stimulated with 20 ng/ml DNP-HSA for 5 min. Total cell lysates were then prepared and analyzed for phospho-PKB, phospho-p38^MAPK, phospho-MAPK, Grb-2 (Cell Signalling, Mississauga, Ont) and SHIP^6 by immunoblot analysis.

[5] = tested on: SHIP enzyme; test: In vitro SHIP enzyme assay (Assay 1); type: biochemical; conditions: wild-type SHIP
Protocol: Assay 1) In vitro testing in a SHIP enzyme assay. Test compounds were dissolved in a suitable solvent (e.g. EtOH, DMSO and others) and diluted into aqueous buffer (20 mM Tris HCl, pH 7.5 and 10 mM MgCl2). SHIP enzyme assays were performed in 96-well microtitre plates with 10 ng of enzyme/well in a total volume of 25 μL of 20 mM Tris HCl, pH 7.5 and 10 mM MgCl2. SHIP enzyme was incubated with test extracts (provided in solvent) or vehicle for 15 min at 23° C. before the addition of 100 μM inositol-1,3,4,5-tetrakisphosphate (Echelon Biosciences Inc, Salt Lake City, Utah). After 20 min at 37° C. and the amount of inorganic phosphate released assessed by the addition of Malachite Green reagent and absorbance measurement at 650 nm.
For in vitro testing in the SHIP enzyme assay, AQX-016A and Compound 100 were dissolved in EtOH and diluted into aqueous buffer (20 mM Tris HCl, pH 7.5 and 10 mM MgCl2). The actual concentration of drug in solution was determined by optical density measurement at 280 nm (λmax for both compounds) after high speed centrifugation at 14 000×g for 30 min to remove precipitated drug. For testing on cells, compounds were formulated in the carrier cyclodextrin (Cyclodex Technologies, High Springs, Fla.) at 6 mM (2 mg/mL). For oral administration to animals, compounds were dissolved in 100% cremophore EL (Sigma-Aldrich Canada, Oakville, Ontario) at 150 mM (50 mg/mL) prior to dilution to 6 mM in phosphate buffer saline. However, while these compounds caged in cyclodextrin or formulated in cremophore EL micelles were very soluble in aqueous solution, they could not be used in the SHIP enzyme assays because of interference from both cyclodextrin and cremophore EL.
N-terminal His6 tagged SHIP enzyme was expressed in mammalian 293T cells by transient transfection with pME18S-His-SHIP plasmid and purified to >95% homogeneity by Ni-chelating bead chromatography (Qiagen, Mississauga, Ontario). Recombinant SHIP C2 domain (amino acid residues 725 to 863) was expressed in E. coli transformed with a pET28C expression vector constructed as described below. Recombinant protein purified from the cell lysates by Nichelating bead chromatography was >95% pure.
In vitro SHIP enzyme assay. SHIP enzyme assays were performed in 96-well microtitre plates with 10 ng of enzyme/well in a total volume of 25 μL of 20 mM Tris HCl, pH 7.5 and 10 Mm MgCl2. SHIP enzyme was incubated with test extracts (provided in DMSO) or vehicle for 15 min at 23° C. before the addition of 100 μM inositol-1,3,4,5-tetrakisphosphate (Echelon Biosciences Inc, Salt Lake City, Utah). After 20 min at 37° C. and the amount of inorganic phosphate released assessed by the addition of Malachite Green reagent and absorbance measurement at 650 nm. SHIP2 enzyme was purchased from Echelon Biosciences (Salt Lake City, Utah) and an equivalent amount of inositol phosphatase activity was used in the in vitro enzyme assay. Enzyme data are expressed as the mean of triplicates +/−SEM. Experiments were performed at least 3 times. (FIGS. 7A and 7B).

[6] = tested on: ΔC2 SHIP; test: SHIP enzyme assay with C2 domain deleted SHIP; type: biochemical; conditions: PI-3,4-P2 20 μM or Compound 100 3 μM, 30 μM IP4
From the text: A His6 tagged SHIP ΔC2 domain deletion mutant (deleting residues 725 to 863) in the mammalian expression vector pME18S was generated by a standard PCR-based methodology. An N-terminal His6 C2 domain construct was also generated by PCR inserted into the pET28C bacterial expression vector using EcoRI and NdeI restriction sites.
The allosteric regulation of enzymes has remained under-appreciated primarily because allosteric effectors are not easy to find. The molecular mechanism by which Compound 100 activated SHIP was investigated, first by performing classical enzyme kinetic analysis of its phosphatase activity. Activity measurements were performed with substrate concentrations from 10-100 μM.
The SHIP protein contains a C2 domain located at the carboxyterminal end of its phosphatase domain. […] SHIP lacking its the C2 domain (ΔC2 SHIP) was prepared.

[7] = tested on: MM cell lines; test: In vitro Multiple Myeloma (MM) assay (Assay 7); type: cell-based; further: key: a ‘+’ indicates a positive result for desired activity; a ‘−’ indicates a negative result for desired activity
Protocol: Assay 7) In vitro Multiple Myeloma (MM) assay. The ability of SHIP activators to reduce tumor cell survival was assessed in MM cell lines treated with the test compound. The lines OPM1, OPM2, MM.1S and RPMI 8226 were plated at a density of 1×10^5 cells/mL in 200 μL of medium with various concentrations of the test compound, and viable cell numbers were determined on day 3 and day 5 by trypan blue exclusion. The lines RPMI 8226 and U266 were plated at a density of 1×10^6 cells/mL in 250 μL of medium with various concentrations of the test compound. At day 4, the medium of each culture was replaced by fresh medium containing the same concentration of test compound. At day 7, the viable cell number of each culture was determined by trypan blue exclusion.
MM cell lines were cultured in 96 well plates seeded with 3×10^4 cells suspended in 200 μL of medium along with various concentrations of test compound (and associated cyclodextran vehicle control), with LY294002 serving as a positive control in the experiments. After 24-48 hrs of culture, […] of [3H]-thymidine (GE Healthcare, Baie D'Urfe, Canada) being added for the final 8 hours. Cells were harvested and DNA associated radioactivity was measured via liquid scintillation counting using a Wallac Microbeta counter (Perkin-Elmer; Boston, Mass.).
The ability of SHIP activators to reduce tumor cell survival was assessed in multiple myeloma (MM) cell lines treated with Compound 100 or AQX-016A. The lines OPM1, OPM2, MM.1S and RPMI 8226 were plated at a density of 1×10^5 cells/mL in 200 μL of medium with various concentrations of Compound 100, and viable cell numbers were determined on day 3 and day 5 by trypan blue exclusion. The lines RPMI 8226 and U266 were plated at a density of 1×10^6 cells/mL in 250 μL of medium with various concentrations of AQX-016A. At day 4, the medium of each culture was replaced by fresh medium containing the same concentration of AQX-016A. At day 7, the viable cell number of each culture was determined by trypan blue exclusion. Experiments were performed in triplicate.
Proliferation (DNA synthesis) assays. Proliferation was measured by measuring incorporation of [^3H]-thymidine into cells. MM cell lines were cultured in 96 well plates seeded with 3×10^4 cells suspended in 200 μL, of medium along with various concentrations of Compound 100 or AQX-016A (and associated cyclodextran vehicle control), with LY294002 serving as a positive control in the indicated experiments. After 24-48 hrs of culture, 1 μCi of [^3H]-thymidine (GE Healthcare, Baie D'Urfe, Canada) being added for the final 8 hours. Plates were frozen, which also aided in cell lysis, to terminate the experiments. Cells were then harvested onto glass fibre filters using an automatic cell harvester (TomTech; Orange, Conn.) and DNA associated radioactivity was measured via liquid scintillation counting using a Wallac Microbeta counter (Perkin-Elmer; Boston, Mass.). Wells were set up in triplicate and data is expressed as mean+/−SEM.

[8] = tested on: J774.1 macrophage cells; test: TNFα production in J774.1 macrophages (Example 9); type: cell-based; conditions: 2 ng/mL LPS
Protocol: J774.1 macrophage cells were plated at 2×10^5 cells/well in 24 well plates. The next day the media was changed and Compound 100, Compound 103 or cyclodextrin carrier were added to the wells at the indicated concentrations for 30 min prior to stimulation of the cells with 2 ng/mL lipopolysaccharide (LPS). LPS activation of macrophages leads to production of TNF alpha which can be detected in the culture supernatant and quantified by ELISA. The results are depicted in a graph in FIG. 1.

Row | SMILES | Assay Number 3: Macrophage NO [1] | Assay Number 2: Macrophage TNF-α production [2] | inhibition of calcium influx [3] | Assay Number 4: Stimulation of mast cells by FcεRI crosslinking [4] | SHIP enzyme activity [5] | ΔC2 SHIP enzyme activity [6] | Assay Number 7: In vitro Multiple Myeloma (MM) assay [7] | inhibition of TNFα production [8]
1 | Cc1cc(OC(=O)C(N)CCCCN)cc2c1[C@]1(C)CCC3C(C)(C)CCC[C@]3(C)[C@H]1C2 (stereo partly shown) [Compound 106] | + | + | Inhibits Calcium Influx in Mast Cells | + |  |  |  | 
2 | CCCCCCCCCCCCCCCC(=O)OC[C@H](COP(=O)(O)O[C@H]1[C@H](O)[C@@H](O)[C@H](OP(=O)(O)O)[C@@H](OP(=O)(O)O)[C@H]1O)OC(=O)CCCCCCCCCCCCCCC [PI-3,4-P2, phosphatidylinositol-3,4-bisphosphate diC16, reference compound] |  |  |  |  | activated wild-type SHIP enzyme to a similar extent as Compound 100 | could not be enhanced |  | 
3 | Cc1cc(O)cc2c1[C@@]1(C)CCC3C(C)(C)CCC[C@]3(C)[C@H]1C2 (stereo partly shown) [Compound 125] | + | + |  | + |  |  | + | 
4 | Cc1cc(OC(=O)CN)cc2c1[C@]1(C)CCC3C(C)(C)CCC[C@]3(C)[C@H]1C2 (stereo partly shown) [Compound 103] | + | + |  |  |  |  |  | Inhibits TNF Alpha Production Better than Compound 100
